System: AMPK
Experiment: AMPK activation (pT172-AMPK immunoassay) in C2C12 myocytes
Type: cell-based, mouse
Conditions: for pAMPK/AMPK.: test material 25 μg/mL, pT172-AMPK per mg lysate protein normalized to DMSO negative controls
Description: The Model—The C2C12 myocyte model is commonly used to study the potential effects of compounds on muscle tissue in vitro.
Cell culture—Mouse C2C12 myoblasts were obtained from American Type Culture Collection (Manassas, Va.), and were maintained in Dulbecco's modified Eagle's medium (DMEM) supplemented with 10% fetal bovine serum at 37° C. under a humidified atmosphere of 5% CO2.
C2C12 cells were seeded at an initial density of 6×10^4 cells/cm^2 in 24-well plates. For two days, the cells were allowed grow to reach confluence. Following confluence, the cells were forced to differentiate into myocytes by culturing in DMEM supplemented with 2% horse serum for seven days.
Treatment with AICAR—On Day 8 to 10 post differentiation, C2C12 myocytes were incubated in serum-free DMEM plus 0.5% BSA (bovine serum albumin) for three hours. Next, AICAR (Cell Signal, Danvers, Mass.) was dissolved in phosphate buffered saline (PBS) and added to the culture medium to achieve concentrations of 1 mM per column (4 replicates) for 30 min at 37° C.
Measuring activated AMPKα—pT^172-AMPK was quantified using the Biosource AMPKa Immunoassay Kit (Camarillo, Calif.) without modification. Protein content of the cell lysates was determined with the Active Motif fluorescent protein assay reagent (Carlsbad Calif., Hoefelschweiger, B. K., Duerkop, A., and Wolfbeis, O, S, Novel type of general protein assay using a chromogenic and fluorogenic amine-reactive probe. Anal Biochem 2005, 344, 122-9). A Packard Fluorocount spectrofluorometer (Model#BF10000, Meridan, Conn.) was used for protein determination and a MEL312e BIO-KINETICS READER (Bio-Tek Instruments, Winooski, Vt.) was used for quantification of pT^172-AMPK.
Calculation of relative activation of AMPK —pT^172-AMPK was computed per mg lysate protein and then normalized to the dimethyl sulfoxide (DMSO) negative controls. For statistical comparisons, 95% confidence intervals were computed (Excel, Microsoft, Redman, Wash.).
The Model—The C2C12 murine myocyte model as described in Example 1 was used.
Chemicals, Cell Culture and Treatment—Chemicals, cell culture procedures, methods and statistical procedures used were as noted in Example 1.
Test Materials—Phytochemicals or botanical extracts as described in Table 1 were used as the test materials and dosed at 25 μglmL. The concentration for the positive control AICAR run concurrently was 1.0 mM (338 μg/mL).
The Model—The C2C12 murine myocyte model as described in Example 1 was used in this example.
Test Materials—Botanical extracts Ginger Extract (Suan Farma, Hackensack, N.J.), Ginger Root Powder (BI Nutraceuticals, Long Beach, Calif.), and Ginger Powdered Extract 6:1, Zingiber officinale (Draco, San Jose, Calif.) were used as the test materials and dosed at 25 μg/mL. The concentration for the positive control AICAR was 1.0 mM (338 μg/mL).

| Compound | pAMPK/AMPK. | increase of pT172-AMPK relative to the DMSO negative controls (1 mM AICAR, 30 min, average over ten independent assays, 95% CI=1.26-2.21) [fold] |
| --- | --- | --- |
| Oc1ccc(C=Cc2cc(O)cc(O)c2)cc1 [Resveratrol] | 1.25 |  |
| CC(C)C[C@H](N)C(=O)O [L-Leucine] | 1.29 |  |
| CCCCC[C@H](O)CC(=O)CCc1ccc(O)c(OC)c1 [6-Gingerol] | 3.52 |  |
| CNCC(O)c1ccc(O)cc1 (stereo not drawn) [Synephrine] | 2.64 |  |
| NC(=O)c1ncn([C@@H]2O[C@H](CO)[C@@H](O)[C@H]2O)c1N [AICAR, 5-Aminoimidazole-4-carboxamide ribonucleoside, reference compound] |  | 1.67 |
| COc1ccc2cc3[n+](cc2c1OC)CCc1cc2c(cc1-3)OCO2 [Berberine] | 1.26 |  |
| Chromium polynicotinate | 1.59 |  |
| CC(C)=CCC1=C(O)C(C(=O)CC(C)C)=C(O)C(CC=C(C)C)(CC=C(C)C)C1=O [Lupulone] | 1.63 |  |
| COc1cc(O)c(CC=C(C)C)c(O)c1C(=O)/C=C/c1ccc(O)cc1 [Xanthohumol] | 1.55 |  |
